Assay results from patent US4169941A, “Derivatives of XK-88-5 and process for the production thereof” (Abbott Laboratories, priority 1976, dated 1979).
Values after ≈ are worked out from the molar mass of the structure shown. Read-outs that look alike come from different tables or passages of the source.

Tests used:
[1] = tested on: various Gram-positive and Gram-negative bacteria; experiment: antibacterial activity (general statement); format: cell-based; details: in words
From the text: (§1) The following Table 1 illustrates minimum inhibitory concentrations (MIC) of 2"-N-formyl-XK-88-5 against various Gram-positive and Gram-negative bacteria determined by agar dilution method (pH 8.0).

[2] = tested on: Staphylococcus aureus Ky 4279; experiment: MIC, agar dilution method (pH 8.0); format: cell-based; details: KY4279, read-out: minimum inhibitory concentration (MIC)
From the text: as §1

[3] = tested on: Klebsiella pheumoniae KY 4275; experiment: MIC, agar dilution method (pH 8.0); format: cell-based; details: KY4275, read-out: minimum inhibitory concentration (MIC)
From the text: as §1

[4] = tested on: Bacillus subtilis KY 4273; experiment: MIC, agar dilution method (pH 8.0); format: cell-based; details: KY4273, read-out: minimum inhibitory concentration (MIC)
From the text: as §1

[5] = tested on: Salmonella typhosa KY 4278; experiment: MIC, agar dilution method (pH 8.0); format: cell-based; details: Salmonella enterica, pH 8, read-out: minimum inhibitory concentration (MIC)
From the text: as §1

Shigella sonnei KY 4281 = experiment: MIC, agar dilution method (pH 8.0); format: cell-based; details: KY4281, read-out: minimum inhibitory concentration (MIC)
From the text: as §1

Vibrio percolans KY 4174 = experiment: MIC, agar dilution method (pH 8.0); format: cell-based; details: Comamonas terrigena, KY4174, read-out: minimum inhibitory concentration (MIC)
From the text: as §1

Escherichia coli KY 4271 = experiment: MIC, agar dilution method (pH 8.0); format: cell-based; details: KY4271, read-out: minimum inhibitory concentration (MIC)
From the text: as §1

[6] = tested on: Pseudomonas alkaligenes KY 4656; experiment: MIC, agar dilution method (pH 8.0); format: cell-based; details: KY4656, read-out: minimum inhibitory concentration (MIC)
From the text: as §1

Erwinia aroideae KY 3241 = experiment: MIC, agar dilution method (pH 8.0); format: cell-based; details: Pectobacterium carotovorum, KY3241, read-out: minimum inhibitory concentration (MIC)
From the text: as §1

Proteus vulgaris KY 4277 = experiment: MIC, agar dilution method (pH 8.0); format: cell-based; details: KY4277, read-out: minimum inhibitory concentration (MIC)
From the text: as §1

[7] = tested on: various Gram-positive and Gram-negative bacteria; details: in words; parent antibiotic, background; cited from earlier work

For `COC1COC(OC2C(N)CC(N)C(OC3OC(CN)CC(O)C3N)C2O)C(NC=O)C1N` (stereo not drawn) [2"-N-formyl-XK-88-5], which antibacterial activity [1] is on record?
Its antibacterial activity is “strong antibacterial activity”.

And the MIC [2]?
The MIC was 0.32 µg/mL (≈ 0.669 µM).

What about the MIC [3] of the same compound?
The MIC was 0.64 µg/mL (≈ 1.34 µM).

What about the MIC [4] of the same compound?
The MIC was 0.32 µg/mL (≈ 0.669 µM).

What about the MIC [5] of the same compound?
Its MIC is 2.5 µg/mL (≈ 5.22 µM).

And the MIC (Shigella sonnei KY 4281)?
The MIC was 2.5 µg/mL (≈ 5.22 µM).

And the MIC (Vibrio percolans KY 4174)?
The MIC was 10 µg/mL (≈ 20.9 µM).

And the MIC (Escherichia coli KY 4271)?
The MIC was 2.5 µg/mL (≈ 5.22 µM).

What about the MIC [6] of the same compound?
Its MIC is 2.5 µg/mL (≈ 5.22 µM).

What about the MIC (Erwinia aroideae KY 3241) of the same compound?
The MIC was 1.25 µg/mL (≈ 2.61 µM).

What about the MIC (Proteus vulgaris KY 4277) of the same compound?
Its MIC is 2.5 µg/mL (≈ 5.22 µM).

Which antibacterial activity [7] does the source give for `COC1COC(OC2C(N)CC(N)C(OC3OC(CN)CC(O)C3N)C2O)C(N)C1N` (stereo not drawn) [XK-88-5] here?
The antibacterial activity was “high antibacterial activity”.
